This test addresses T1, αvβ3 from human placenta (Homo sapiens, UniProt P05106+P06756).
T1 construct: αvβ3 from human placenta; from tissue; host or cells: human placenta
Description: αvβ3/echistatin binding inhibition (I125-echistatin, scintillation proximity beads). The note with it: inhibition of I125-echistatin binding to αvβ3; 1 hour at room temperature; determined in duplicate from concentration series. As for the experimental part: The substances were tested for their ability to inhibit αvβ3/echistatin binding analogously to Kumar C. C., Nie H. M., Rogers G. P., Malkowski M., Maxwell E., Catino J. J. and Armstrong L. (Journal of Pharmacology and Experimental Therapeutics 283(2)(1997)843-853).
αvβ3 from human placenta (Smith J. W. and Cheresh, D. A. (1988), J. Biol. Chem. 263, 18726-18732) (1 mg/ml 50 mM tris HCl pH 7.4, 100 mM NaCl, 2 mM CaCl2, 1% and octylglucoside) was diluted with test buffer (50 mM tris-HCl pH 7.4, 100 mM NaCl, 1 mM CaCl2, 1 mM MgCl2, 1 mM MnCl2, 0.1% bovine serum albumin) and 55 μl each of this αvβ3 solution were added to the wells of a 96-well microtiter plate (about 0.1-0.3 μg of αvβ3 per well). 2 μl of the substances to be tested dissolved in DMSO were then added. 10 μl (40,000 cpm) of I^125-echistatin per well were then added and the mixture was incubated for 1 hour at room temperature with careful shaking. It was then treated with 100 μg of wheatgerm-coated yttrium silicate beads (Amersham, type RPNQ0011) in 25 μl of distilled water. After 1 hour at room temperature, the cpm values were measured in a scintillation counter. The Ki values were determined in duplicate from concentration series. The nonspecific binding was determined in the presence of 0.1 μM unlabeled echistatin or by addition of 5 mM EDTA to the binding mixture.
(Scintillation proximity formats need no separation of bound from free tracer.)

T1 sequence (P06756 31-889 limits assumed): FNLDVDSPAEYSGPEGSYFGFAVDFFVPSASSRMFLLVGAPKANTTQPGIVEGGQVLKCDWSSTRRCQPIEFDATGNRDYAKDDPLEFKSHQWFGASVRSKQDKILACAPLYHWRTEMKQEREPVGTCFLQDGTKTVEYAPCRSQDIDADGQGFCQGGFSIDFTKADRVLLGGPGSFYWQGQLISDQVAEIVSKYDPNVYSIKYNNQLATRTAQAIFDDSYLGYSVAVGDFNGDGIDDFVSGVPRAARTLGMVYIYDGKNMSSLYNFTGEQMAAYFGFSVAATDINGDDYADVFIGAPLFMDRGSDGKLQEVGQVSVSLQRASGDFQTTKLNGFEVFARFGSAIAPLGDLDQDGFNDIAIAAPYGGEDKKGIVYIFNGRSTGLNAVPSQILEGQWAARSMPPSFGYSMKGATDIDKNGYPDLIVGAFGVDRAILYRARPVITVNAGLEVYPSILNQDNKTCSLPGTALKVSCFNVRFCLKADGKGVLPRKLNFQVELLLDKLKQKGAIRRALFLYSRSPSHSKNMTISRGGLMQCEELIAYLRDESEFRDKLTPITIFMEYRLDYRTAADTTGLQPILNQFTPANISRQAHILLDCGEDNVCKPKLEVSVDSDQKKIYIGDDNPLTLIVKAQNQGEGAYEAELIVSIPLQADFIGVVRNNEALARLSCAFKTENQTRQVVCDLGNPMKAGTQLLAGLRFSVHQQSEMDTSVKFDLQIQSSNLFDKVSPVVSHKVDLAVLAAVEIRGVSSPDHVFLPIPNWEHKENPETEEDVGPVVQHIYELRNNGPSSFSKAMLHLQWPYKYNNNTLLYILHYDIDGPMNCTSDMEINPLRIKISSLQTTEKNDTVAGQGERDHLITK
T1 sequence (P06756 891-1048 partner limits assumed): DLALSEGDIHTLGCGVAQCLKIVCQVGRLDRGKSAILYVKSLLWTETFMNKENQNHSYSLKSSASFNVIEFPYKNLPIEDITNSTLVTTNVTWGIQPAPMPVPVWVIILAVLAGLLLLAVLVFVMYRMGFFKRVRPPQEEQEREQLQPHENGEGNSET
T1 sequence (P05106 27-788): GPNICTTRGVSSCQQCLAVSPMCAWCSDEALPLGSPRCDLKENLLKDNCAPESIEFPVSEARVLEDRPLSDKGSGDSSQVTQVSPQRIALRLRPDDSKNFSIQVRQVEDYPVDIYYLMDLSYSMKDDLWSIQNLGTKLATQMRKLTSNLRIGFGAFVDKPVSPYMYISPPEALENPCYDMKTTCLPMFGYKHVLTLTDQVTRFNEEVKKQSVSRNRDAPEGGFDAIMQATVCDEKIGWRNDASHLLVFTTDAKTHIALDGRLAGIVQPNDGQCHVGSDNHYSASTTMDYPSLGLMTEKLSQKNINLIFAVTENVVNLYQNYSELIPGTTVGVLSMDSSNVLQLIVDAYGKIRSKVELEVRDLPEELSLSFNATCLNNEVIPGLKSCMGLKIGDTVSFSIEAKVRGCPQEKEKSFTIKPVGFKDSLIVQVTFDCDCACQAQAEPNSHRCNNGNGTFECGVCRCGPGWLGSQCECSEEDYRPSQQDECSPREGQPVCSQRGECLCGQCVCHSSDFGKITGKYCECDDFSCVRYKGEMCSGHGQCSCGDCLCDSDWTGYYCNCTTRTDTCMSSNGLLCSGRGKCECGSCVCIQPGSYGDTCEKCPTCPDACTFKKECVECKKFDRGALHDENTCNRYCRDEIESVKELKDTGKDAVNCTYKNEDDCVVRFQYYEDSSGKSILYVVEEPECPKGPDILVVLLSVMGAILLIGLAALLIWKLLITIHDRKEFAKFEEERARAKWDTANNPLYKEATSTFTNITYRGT

One may read the Ki as the equilibrium dissociation constant of an inhibitor or competing ligand from its target. Low readings indicate higher affinity, high ones lower affinity. With `CCCNC(=O)Nc1cccc(-c2ccc(OC[C@H](NS(=O)(=O)c3c(C)cc(C)cc3C)C(=O)O)cc2)c1` [Example 20, N-(Mesitylsulfonyl)-O-(3′-{[(propylamino)carbonyl]amino}-1,1′-biphenyl-4-yl)-L-serine], the Ki worked out at 4 nM.

The record behind these values is patent US6545029B2, “Phenylserine derivatives as integrin antagonists” (Bayer Aktiengesellschaft, priority 2000, dated 2003).
